Assay results published in patent publication US9149546B2, “Compound having affinity for amyloid” (NIHON MEDI-PHYSICS CO., LTD., priority 2011, dated 2015).

Assays:
[1] = target: amyloid aggregates in the brain of AD patients (Homo sapiens, UniProt P05067); test: Binding assay using brain gray matter homogenate of AD patients (Kd, Bmax); conditions: mixed solution of Compound 1 and Compound 3, 0.2 to 25 nmol/L; brain gray matter homogenate (frontal lobe) of AD patients; 22° C., 3 hours
Procedure: Calculation of Dissociation Constant (Hereinafter, Referred to as Kd) and Maximum Binding Amount (Hereinafter, Referred to as Bmax) Resulting from Binding Assay Using Brain Tissue of Patients of Alzheimer's Disease (Hereinafter, Referred to as AD)
The assay was conducted using a brain gray matter homogenate of AD patients, which was prepared from a brain tissue (Frontal lobe) of AD patients commercially available from Analytical Biological Services Inc. (United States).
A mixed solution of Compound 1 (about 35 kBq/100 μL) and Compound 3 (62.5 nmol/L) was diluted with a 0.1% bovin serum albumin (hereinafter referred to as BSA)-containing 5 mmol/L phosphate buffer saline solution, and prepared to have a concentration of 0.2 nmol/L to 25 nmol/L in the reaction solution. To each well of a 96-well microplate, 100 μL of a 0.1% BSA-containing 5 mmol/L phosphate buffer saline solution and 100 μL of the prepared mixed solution of Compound 1 and Compound 3 were added. […] The filter after filtration was washed with a 0.1% BSA-containing 5 mmol/L phosphate buffer saline solution (200 μL×3 times), and then radioactivity remaining in the filter was measured with an Autowell Gamma system (type: ARC-7001, manufactured by Aloka). […] The resulting count was analyzed with GraphPad Prism Ver. 5 (manufactured by GraphPad Software, Inc.), and binding parameter (Kd, Bmax) was calculated.

[2] = system: site of amyloid deposition in brain slice of AD patients; test: Confirmation of compound avidity for brain slice of AD patients by autoradiography; assay type: binding, human; conditions: 5 μm brain slice of AD patients, 10 kBq/mL, 30 minutes, room temperature; amyloid deposition confirmed by immunostaining
Procedure: The following experiment was carried out in order to examine whether amyloid in brain of AD patients can be imaged by the compound of the present invention. • (1) A 5 μm-thick brain slice of AD patients was prepared from a brain tissue of AD patients available from Analytical Biological Services Inc. (United States). • (2) The brain slice was immersed in PBS for 15 minutes, 5 minutes and 5 minutes each. […] Then, it was immersed in a 1% BSA-containing PBS solution, a PBS solution and a PBS solution each for 5 minutes to wash the brain slice. The washed brain slice was sufficiently dried, and then exposed to an imaging plate for 16 hours, and then autoradiogram image analysis was carried out by use of a Bio-imaging Analyzer (type: BAS-2500; manufactured by FUJIFILM Corporation) (FIG. 3, FIG. 4, FIG. 5). • (3) Immunostaining at a site of amyloid deposition with an anti-amyloid antibody was carried out using adjacent slices. Anti-Human Amyloidβ (N) (82E1) Mouse IgG MoAb (Immuno-Biological Laboratories Co., Ltd.) was used as the anti-amyloid antibody, and Anti-Mouse IgG (H+L) Goat IgG Fab′-HRP (Immuno-Biological Laboratories Co., Ltd.) was used as a secondary antibody. […] Results

[3] = Measurement of transferability into brain and clearance; assay type: in vivo, male Wistar rats; conditions: rats, intravenous injection; for Radioactive accumulation per unit weight, After 2 min. / Radioactive accumulation per unit weight, After 5 min. / Radioactive accumulation per unit weight, After 15 min. / Radioactive accumulation per unit weight, After 30 min. / Radioactive accumulation per unit weight, After 60 min.: brain; for Radioactive accumulation per unit weight, After 2 min.: 2 min after injection; for Radioactive accumulation per unit weight, After 5 min.: 5 min after injection; for Radioactive accumulation per unit weight, After 15 min.: 15 min after injection; for Radioactive accumulation per unit weight, After 30 min.: 30 min after injection; for Radioactive accumulation per unit weight, After 60 min.: 60 min after injection; for transferability to brain and clearance from brain (in words): 2 to 60 min
Procedure: The sample solution was injected under non-anesthesia into the tail vein of male Wistar rats (8-week old) (dosage: 0.2 mL, dosed radioactivity: 7.4 MBq equivalent). The rats were sacrificed by decapitating under non-anesthesia to sample bloods and brains 2, 5, 15, 30 and 60 minutes after the injection. Brains were subjected to measurement of mass of brains and further subjected to measurement of radioactivity (hereinafter referred to as A in this Example) with a single channel analyzer (detector type SP-20 manufactured by OHYO KOKEN KOGYO Co., Ltd.). Further, the radioactivity level of the rest of the whole body including blood was measured in the same manner as above (hereinafter referred to as B in this Example). Using these measurement results, the amount of radioactive accumulation per unit weight of brain (% ID/g) at the respective time points were calculated in accordance with the following formula (2).
Separately, a solution of [^123I]-IMPY dissolved in a physiological saline solution containing 50 mmol/L of L-cysteine hydrochloride (radioactive concentration: 37 MBq/mL) was prepared. The same procedure as above was carried out to calculate the amount of radioactive accumulation per unit weight of brain (% ID/g) at the respective time points.
Meanwhile, in this Example, three animals were used for the experiment at the respective time points.

[4] = Measurement of partition coefficient based on the octanol extraction method; assay type: physicochemical; conditions: water saturated 1-octanol / 1-octanol saturated water, 20 to 25±2° C.
Procedure: Water saturated 1-octanol and 1-octanol saturated water were added to the equilibrated vessel each in an amount of 200 μL, 400 μL or 800 μL. The equilibrated vessel was subjected to stirring, and then was shaken for 5 minutes (20 to 25±2° C., 20 rpm). […] Using the obtained count, log Poctanol was calculated in accordance with the following equation (1).

amyloid aggregates in the brain of AD patients, sequence (P05067 672-713): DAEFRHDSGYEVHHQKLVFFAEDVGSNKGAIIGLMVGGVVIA

Bmax [1] [fmol/mg protein] | binding to the site of amyloid deposition on autoradiogram [2] | Radioactive accumulation per unit weight, After 2 min. [3] [% ID/g] | Radioactive accumulation per unit weight, After 5 min. [3] [% ID/g] | Radioactive accumulation per unit weight, After 15 min. [3] [% ID/g] | Radioactive accumulation per unit weight, After 30 min. [3] [% ID/g] | Radioactive accumulation per unit weight, After 60 min. [3] [% ID/g] | logP at 5 min ([4]; 1-octanol/water, read-out: logPoctanol value) | logPoctanol value [4] | Compound | transferability to brain and clearance from brain (in words) [3]
2242 | confirmed | 1.085 | 0.701 | 0.260 | 0.100 | 0.034 | 1.98 | 1.98 | [123I]c1ccc2nc(-c3ccc(-n4ccnn4)cc3)cn2c1 [Compound 1, [^123I]-6-iodo-2-[4-(1H-1,2,3,-triazole-1-yl)phenyl]imidazo[1,2-a]pyridine] | excellent transferability to brain and rapid clearance from brain
 | confirmed | 1.644 | 1.192 | 0.554 | 0.225 | 0.085 |  |  | CN(C)c1ccc(-c2cn3cc(I)ccc3n2)cc1 [[^123I]-IMPY, 6-iodo-2-[4′-(N,N-dimethylamino)phenyl]imidazo[1,2-a]pyridine, reference compound] | 

Compound | Bmax [1] [fmol/mg protein] | binding to the site of amyloid deposition on autoradiogram [2] | Radioactive accumulation per unit weight, After 2 min. [3] [% ID/g] | Radioactive accumulation per unit weight, After 5 min. [3] [% ID/g] | Radioactive accumulation per unit weight, After 15 min. [3] [% ID/g] | Radioactive accumulation per unit weight, After 30 min. [3] [% ID/g] | Radioactive accumulation per unit weight, After 60 min. [3] [% ID/g] | logP at 5 min ([4]; 1-octanol/water, read-out: logPoctanol value) | logPoctanol value [4] | transferability to brain and clearance from brain (in words) [3]
[^123I]-6-iodo-2-[4-(1H-pyrrole-1-yl)phenyl]imidazo[1,2-a]pyridine [Compound 2] |  | confirmed | 1.201 | 1.065 | 0.745 | 0.349 | 0.113 |  |  | excellent transferability to brain and rapid clearance from brain
